According to publication PMC11592631, “Novel PP2A-Activating Compounds in Neuroblastoma” (Cancers, 2024):

Tests used:
[1] = Pharmacokinetic studies of ATUX-8385 in mice (IV and PO), plasma by LC-MS/MS; type: in vivo
Experimental: Pharmacokinetic (PK) studies of ATUX-8385 were conducted by Eurofins. Briefly, ATUX-8385 was administered at 1 mg/kg intravenously (IV) or 30 mg/kg oral (PO) to male mice, as is the experimental choice of the Contract Research Organization. At euthanasia, samples were collected and stored at −70 °C until processing. The plasma samples were collected at 0.05, 0.167, 0.5, 1, 2, 4, 8, and 24 h(s) after IV treatment, and at 0.167, 0.5, 1, 2, 4, 6, 8, and 24 h(s) after PO treatment. The plasma samples were processed using acetonitrile precipitation and analyzed by liquid chromatography–tandem mass spectrometry (LC-MS/MS).

[2] = In vitro microsome (oxidative) stability / in vitro metabolism; type: in vitro ADME
PP2A = target: T1, PP2A (Homo sapiens, UniProt P30153+P67775+Q15172); experiment: PP2A Immunoprecipitation Phosphatase Assay on lysates of treated NB cells; type: cell-based; conditions: 24 h, control 100%, mean ± SEM
T1 construct: endogenous in cells; host or cells: SK-N-AS, SK-N-BE(2), SH-EP, WAC2 human neuroblastoma cells
T1 sequence (P30153 2-589 limits assumed): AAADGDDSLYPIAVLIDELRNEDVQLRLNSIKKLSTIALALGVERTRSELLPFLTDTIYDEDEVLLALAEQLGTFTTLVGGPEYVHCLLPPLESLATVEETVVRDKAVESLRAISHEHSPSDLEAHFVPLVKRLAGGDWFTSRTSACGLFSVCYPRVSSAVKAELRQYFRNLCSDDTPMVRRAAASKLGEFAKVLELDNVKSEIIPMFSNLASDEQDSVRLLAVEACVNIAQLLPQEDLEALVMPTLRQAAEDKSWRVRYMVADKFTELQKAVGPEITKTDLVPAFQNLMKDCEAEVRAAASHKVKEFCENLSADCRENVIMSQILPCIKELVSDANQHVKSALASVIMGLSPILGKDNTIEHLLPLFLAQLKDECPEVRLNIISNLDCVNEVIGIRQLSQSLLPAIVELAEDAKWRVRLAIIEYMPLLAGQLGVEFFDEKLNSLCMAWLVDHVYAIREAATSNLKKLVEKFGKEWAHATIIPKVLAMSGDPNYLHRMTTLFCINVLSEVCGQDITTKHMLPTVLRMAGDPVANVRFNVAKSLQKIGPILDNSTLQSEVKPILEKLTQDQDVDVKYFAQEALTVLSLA
T1 sequence (P67775 whole entry): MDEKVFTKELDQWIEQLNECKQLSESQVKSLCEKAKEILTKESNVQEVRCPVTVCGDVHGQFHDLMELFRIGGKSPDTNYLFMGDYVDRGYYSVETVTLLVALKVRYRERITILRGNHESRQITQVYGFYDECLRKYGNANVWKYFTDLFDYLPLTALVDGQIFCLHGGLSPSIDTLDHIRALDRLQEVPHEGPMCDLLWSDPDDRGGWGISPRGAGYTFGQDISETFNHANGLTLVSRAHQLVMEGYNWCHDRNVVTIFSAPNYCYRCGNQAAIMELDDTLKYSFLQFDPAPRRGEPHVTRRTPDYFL
T1 sequence (Q15172 whole entry): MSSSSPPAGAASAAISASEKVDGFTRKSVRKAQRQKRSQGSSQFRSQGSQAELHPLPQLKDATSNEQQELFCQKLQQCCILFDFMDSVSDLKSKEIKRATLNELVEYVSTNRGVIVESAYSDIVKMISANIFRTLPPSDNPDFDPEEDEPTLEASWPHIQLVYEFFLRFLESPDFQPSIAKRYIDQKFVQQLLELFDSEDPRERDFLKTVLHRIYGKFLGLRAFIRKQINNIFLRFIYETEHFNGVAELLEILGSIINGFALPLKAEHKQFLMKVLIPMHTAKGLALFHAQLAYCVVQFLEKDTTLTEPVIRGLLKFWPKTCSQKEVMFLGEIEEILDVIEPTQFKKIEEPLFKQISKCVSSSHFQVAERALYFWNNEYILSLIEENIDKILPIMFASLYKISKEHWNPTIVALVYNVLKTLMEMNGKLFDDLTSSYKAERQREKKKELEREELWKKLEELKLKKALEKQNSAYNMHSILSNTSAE
Experimental: SK-N-AS, SK-N-BE(2), SH-EP, or WAC2 cells (1 × 10^6) were treated with ATUX-3364 or ATUX-8385 (SK-N-AS and SK-N-BE(2) 4 µM; SH-EP and WAC2 12 µM) for 24 h and lysed using HEPES ((4-(2-hydroxyethyl)-1-piperazineethanesulfonic acid, 10 mM) (AC215001000, Thermo Fisher Scientific), MgCl2 (1.5 mM) (MX0045-4, EM Science, Gibbstown, NJ, USA), KCl (10 mM) (02-003-741, Thermo Fisher Scientific), phenylmethylsulfonyl fluoride (0.5 mM) (PMSF, Sigma Aldrich), dithiothreitol (0.5 mM) (EC-601, National Diagnostics, Atlanta, GA, USA), and Igepal CA-630 (0.2%) (I7771, Sigma Aldrich) on ice for 20 min. Cell lysates were centrifuged at 17 000 rpm for 30 min at 4 °C. A PP2A Immunoprecipitation Phosphatase Assay Kit (17–313, EMD Millipore) was utilized per the manufacturer’s protocol to evaluate the activity of PP2A. Experiments were completed with at least three biological replicates, and data were reported as mean fold change ± standard error of the mean (SEM).

COA6 PDX cells [3] = experiment: Cell viability, alamarBlue assay; type: cell-based, human; conditions: COA6 PDX cells, 0, 5, 10, 20 μM, 24 h
Experimental: (§1) Cell viability was determined by alamarBlue assay (Thermo Fisher Scientific) and proliferation was detected with CellTiter 96 Proliferation assay (Promega, Madison, WI, USA). NB cell lines (15,000 cells for viability or 5000 for proliferation) or COA6 PDX cells (30,000 for viability or 10,000 for proliferation) were seeded in 96-well cell culture plates followed by treatment with increasing doses of ATUX-3364 or ATUX-8385 for 24 h. Doses were as follows: established cell lines, 0–20 µM; PDX COA6 cells, 0–25 µM. Respective dyes (10 µL) were added, and absorbance measurement was completed with a microplate reader (Epoch Microplate Spectrophotometer, BioTek Instruments, Winooski, VT, USA). A wavelength of 570 nm was used for alamarBlue and 490 nm for CellTiter 96 with 600 nm serving as the reference for both. A minimum of three biological replicates for each experiment were completed, and data were reported as fold change ± SEM.

SH-EP cells [4] = experiment: Cell viability, alamarBlue assay; type: cell-based, human; conditions: SH-EP, 0, 5, 7.5, 20 μM, 24 h
Experimental: as §1

SK-N-AS cells [5] = experiment: Cell viability, alamarBlue assay; type: cell-based, human; conditions: SK-N-AS, 0, 5, 7.5, 20 μM, 24 h
Experimental: as §1

SK-N-BE(2) cells [6] = experiment: Cell viability, alamarBlue assay; type: cell-based, human; conditions: SK-N-BE(2), 0, 5, 7.5, 20 μM, 24 h
Experimental: as §1

WAC2 cells [7] = experiment: Cell viability, alamarBlue assay; type: cell-based, human; conditions: WAC2, 0, 5, 7.5, 20 μM, 24 h
Experimental: as §1

COA6 PDX cells [8] = experiment: Proliferation, CellTiter 96 assay; type: cell-based, human; conditions: increasing doses, 24 h
Experimental: as §1

SH-EP cells [9] = experiment: Proliferation, CellTiter 96 assay; type: cell-based, human; conditions: increasing doses, 24 h
Experimental: as §1

SK-N-AS cells [10] = experiment: Proliferation, CellTiter 96 assay; type: cell-based, human; conditions: increasing doses, 24 h
Experimental: as §1

SK-N-BE(2) cells [11] = experiment: Proliferation, CellTiter 96 assay; type: cell-based, human; conditions: increasing doses, 24 h
Experimental: as §1

WAC2 cells [12] = experiment: Proliferation, CellTiter 96 assay; type: cell-based, human; conditions: WAC2, increasing doses, 24 h
Experimental: as §1

SH-EP cells [13] = experiment: Monolayer wound healing (scratch) assay; type: cell-based, human; conditions: 12 μM, vs untreated cells, p ≤ 0.001
Experimental: (§2) Migration was investigated using a monolayer wound healing (scratch) assay. Established NB cells (5 × 10^4) were plated in 12-well plates. […] Photographs of the plates were obtained at 0, 12, 24, and 36 h. The ImageJ MRI Wound Healing Tool (https://imagej.net, accessed on 26 November 2021) quantified the open wound area as previously described. In PDX cells, migration was assessed using modified Boyden chamber assays. Micropore inserts with […] (Corning) were utilized in 24-well plates. The insert bottoms were coated with human laminin (10 µg/mL, 150 μL, EMD Millipore). COA6 PDX cells were treated for 24 h with ATUX-3364 or ATUX-8385 (6 μM), plated (4 × 10^4 cells), allowed to migrate through the membrane for 72 h, and the insert membranes were fixed using 4% paraformaldehyde and stained with 1% crystal violet for 15 min. Inserts were photographed, and migration was quantified with ImageJ (https://imagej.net, accessed on 26 November 2021). Scratch assays were reported as the fold change area remaining open at 36 h, and modified Boyden chamber assays were reported as the mean number of migrated cells ± SEM. Experiments were completed with at least three biological replicates.

SK-N-AS cells [14] = experiment: Monolayer wound healing (scratch) assay; type: cell-based, human; conditions: 4 μM
Experimental: as §2

SK-N-BE(2) cells [15] = experiment: Monolayer wound healing (scratch) assay; type: cell-based, human; conditions: 4 μM, vs untreated cells, p ≤ 0.001
Experimental: as §2

WAC2 cells [16] = experiment: Monolayer wound healing (scratch) assay; type: cell-based, human; conditions: WAC2, 12 μM; vs untreated cells, p ≤ 0.001
Experimental: as §2

COA6 PDX cells [17] = experiment: Modified Boyden chamber migration assay; type: cell-based, human; conditions: COA6, 6 μM, treated 24 h, 72 h migration; p ≤ 0.001
Experimental: as §2

SK-N-AS tumors = experiment: In vivo tumor growth, flank xenograft; design: species or system athymic nude mice; conditions: 50 mg/kg oral twice daily, 14 days
Experimental: (§3) SK-N-AS or SK-N-BE(2) (1.5 × 10^6) cells in 25% Matrigel (BD Biosciences) were injected into the right flank of 6-week-old female athymic nude mice (Fredricks) (n = 7 for SK-N-AS vehicle treated, n = 6 for SK-N-AS experimental groups, n = 5 for SK-N-BE(2) vehicle treated, n = 6 for SK-N-BE(2) ATUX-3364, and n = 7 ATUX-8385 treatment groups). Tumors were measured thrice per week with calipers, and tumor volumes were calculated by the formula (width^2 × length)/2, where the width was the smaller measurement. When tumors reached a volume of 60–100 mm^3, animals were randomized to three groups to receive 100 µL twice daily by oral gavage of vehicle [N,N-dimethylacetamide (DMA, 271012, Sigma Aldrich) and Kolliphor HS 15 (Solutol, 42996, Sigma Aldrich)], ATUX-3364 (50 mg/kg in DMA and Solutol), or ATUX-8385 (50 mg/kg in DMA and Solutol); dosing was based on previously published data using in vivo cancer models. Animals were weighed daily and were humanely euthanized in their home cages with CO2 and cervical dislocation 14 (SK-N-AS) or 21 (SK-N-BE(2)) days after treatment initiation, when the tumor volume reached 2000 mm^3, or when animals met IACUC parameters. Because COA6 cells grow tumors unpredictably and erratically in mice, these PDX cells were not utilized for in vivo studies, but all COA6 tumors were propagated in mice.

SK-N-BE(2) tumors = experiment: In vivo tumor growth, flank xenograft; design: species or system athymic nude mice; conditions: 50 mg/kg oral twice daily, 21 days
Experimental: as §3

CIP2A = experiment: Immunoblotting for the endogenous PP2A inhibitor CIP2A; type: cell-based, human; conditions: immunoblot
Experimental: (§4) Post-treatment, cell lysis was completed in radioimmunoprecipitation (RIPA) buffer. Phosphatase inhibitors (P5726, Sigma), protease inhibitors (P8340, Sigma), and phenylmethanesulfonylfluoride (PMSF, P7626, Sigma) were added to make a complete RIPA buffer. Lysis was performed for 60 min at 4 °C followed by centrifugation at 17,000 rpm for 30 min (4 °C). The protein concentration was determined using the Pierce BCA Protein Assay (Thermo Fisher Scientific), and protein separation was completed on sodium dodecyl sulfate polyacrylamide (SDS-PAGE) gel-based electrophoresis. Targeted protein size was determined using molecular weight markers (Precision Plus Protein Kaleidoscope, Bio-Rad, Hercules, CA, USA). […] Immunoblots were developed with Luminata Classico or Crescendo Western horseradish peroxidase substrate (EMD Millipore, Burlington, MA, USA) on X-ray film. Anti-beta-actin, anti-vinculin, or anti-GAPDH served as internal loading controls.

SET = experiment: Immunoblotting for the endogenous PP2A inhibitor SET; type: cell-based, human; conditions: immunoblot
Experimental: as §4

PARP = experiment: Immunoblotting for cleaved and total PARP (apoptosis); type: cell-based, human; conditions: immunoblot
Experimental: as §4

MYCN = experiment: Immunoblotting for phosphorylated MYCN (S62) and total MYCN; type: cell-based, human; conditions: increasing concentrations, immunoblot
Experimental: as §4

[18] = design: method as in PMID 35454859; conditions: in vivo; cited from earlier work
[19] = design: method as in PMID 35454859; conditions: cited from earlier work

## O=S(=O)(N[C@@H]1CNC[C@H](n2c3ccc(F)cc3c3cc(F)ccc32)[C@H]1O)c1ccc(OC(F)(F)F)cc1 [ATUX-8385]
[1]; 12.3 vs 32.5 mL/min/kg
  in vivo IV clearance stability relative to DBK-1154: more stable by a factor of nearly three times
[1]; for approximately 8 h after a bolus oral dose at 30 mg/kg
  Plasma levels: 1000 to 2000 nM
[2]; <115.5 vs 234 µL/min/mg
  microsome stability relative to DBK-1154: more stable by a factor of two
[2]; Test Concentration 1 x 10^-7 M
  Clearance (in vitro microsome (oxidative) stability): < 115.5 µL/min/mg
PP2A; SH-EP cells, 12 μM
  PP2A activation (percent of control): 126.6 ± 6.4%
PP2A; SK-N-AS cells, 4 μM
  PP2A activation (percent of control): 134.1 ± 5.5%
PP2A; SK-N-BE(2) cells, 4 μM
  PP2A activation (percent of control): 167.2 ± 13.7%
PP2A; WAC2 cells, 12 μM
  PP2A activation (percent of control): 118.2 ± 9.2%
COA6 PDX cells [3]
  viability: significantly decreased
SH-EP cells [4]
  viability: significantly decreased viability
SK-N-AS cells [5]
  viability: significantly decreased viability
SK-N-BE(2) cells [6]
  viability: significantly decreased viability
WAC2 cells [7]
  viability: significantly decreased viability
COA6 PDX cells [8]
  proliferation: significant decrease
SH-EP cells [9]
  proliferation: significant decrease
SK-N-AS cells [10]
  proliferation: significant decrease
SK-N-BE(2) cells [11]
  proliferation: significant decrease
WAC2 cells [12]
  proliferation: significant decrease
SH-EP cells [13]
  motility (wound healing, area remaining open at 36 h): significant decrease in motility
SK-N-AS cells [14]
  motility (wound healing, area remaining open at 36 h): affected in a statistically significant manner
SK-N-BE(2) cells [15]
  motility (wound healing, area remaining open at 36 h): significant decrease in motility
WAC2 cells [16]
  motility (wound healing, area remaining open at 36 h): significant decrease in motility
COA6 PDX cells [17]
  cell migration (number of migrated cells): significantly decreased
SK-N-AS tumors
  relative tumor growth: no decrease
  tumor volumes: no decrease
SK-N-BE(2) tumors
  relative tumor growth: significant decrease
  tumor volumes: significant decrease
CIP2A; SH-EP cells
  CIP2A expression: decreased
CIP2A; SK-N-AS cells
  CIP2A expression: decreased
CIP2A; SK-N-BE(2) cells
  CIP2A expression: decreased
CIP2A; WAC2 cells
  CIP2A expression: decreased
SET; COA6 PDX cells
  SET expression: variably affected
SET; SH-EP cells
  SET expression: did not alter SET expression
SET; SK-N-AS cells
  SET expression: unchanged
SET; SK-N-BE(2) cells
  SET expression: increased
SET; WAC2 cells
  SET expression: decreased
PARP; SK-N-AS whole cell lysates
  cleaved PARP: increase
  total PARP: decrease
PARP; SK-N-BE(2) whole cell lysates
  cleaved PARP: increase
  total PARP: decrease
MYCN; SK-N-AS cells
  phosphorylated MYCN (S62): decreased
  total MYCN protein expression: decreased
MYCN; SK-N-BE(2) cells
  phosphorylated MYCN (S62): decreased
  total MYCN protein expression: decreased

## O=S(=O)(NC1CCCC(N2c3ccccc3CCc3ccccc32)C1O)c1ccc(OC(F)(F)F)cc1 (stereo not shown) [DBK-1154]
[18]
  clearance IV: 32.5 mL/min/kg
[19]
  in vitro microsome (oxidative) stability (clearance): 234 µL/min/mg
